Measurements: PMC6683251, “Flavanol Bioavailability in Two Cocoa Products with Different Phenolic Content. A Comparative Study in Humans” (Nutrients, 2019)

Test: Urinary excretion of flavanol metabolites (0-24 h) after a single serving of soluble cocoa product (HPLC-ESI-QToF-MS)
Format: in vivo, human
Details: mean ± SD, n = 13; for Excreted in urine, Total: 24 h urine; for Excreted in urine, Basal: basal urine (−2–0 h, before intake)
Method: They were non-smoker, non-vegetarian, non-pregnant women, who were not taking any medication or nutritional supplements, and were not suffering from any chronic pathology or gastrointestinal disorder. The sample size was estimated attending to similar previous bioavailability studies. The volunteers gave their informed consent prior to participation.
The present randomized, single-blind study was carried out at the Human Nutrition Unit (HNU) of the Institute of Food Science, Technology and Nutrition (ICTAN). Volunteers attended the HNU on two days, separated by two weeks. Three days previous to each visit, participants were instructed not to consume cocoa products (chocolate, soluble cocoa, etc.), juices, tea, wine, grape must, oranges, tangerines, apples, grapes, strawberries or other berries, beets, onions, soybeans and soy derivatives.
On each intervention day, volunteers arrived at the HNU after an overnight fast. […] The soluble cocoa products, either 15 g of CC or 25 g CC-PP, were dissolved in 200 mL of semi-skimmed milk following manufacturer’s preparation instructions. Plasma was separated by centrifugation (10 min, 3000 rpm, 4 °C) and stored at −80 °C until further analysis. […] A polyphenol-free breakfast, lunch and afternoon snack were provided 2 h, 4 h, and 8 h after consumption of cocoa products, and water and isotonic beverages were available ad libitum.
Urine samples were diluted with an equivalent volume of Milli-Q water (50%) and centrifuged at 14000 rpm (10 min, 4 °C). Supernatants were filtered (0.45 μm pore-size cellulose-acetate membrane filters) and a 5 µL aliquot was directly injected into the LC-ESI-QToF-MS equipment.
The test samples, either 30 μL of the plasma extract or 5 μL of diluted urine, were injected and separated using a mobile phase consisting of Milli-Q water (phase A) and acetonitrile (phase B), both containing 0.1% formic acid, at a flow rate of 0.3 mL/min. The mobile phase was initially programmed with 90% of solvent A and 10% of B. The elution program increased to 30% of solvent B in 10 min. Then, the initial conditions (10% solvent B) were recovered in 5 min and maintained for 5 min.
Due to the lack of standards for certain phase II metabolites, they were tentatively quantified using the calibration curves of their corresponding phenolic precursors. […] The rest of microbial metabolites identified, derivatives of hydroxyphenylpropionic, hydroxyphenylacetic, hydroxybenzoic and hippuric acids, were quantified using their respective commercially available standards. Urine concentration of the excreted metabolites was normalized by the volume excreted in each studied interval. […] Calibration curves were freshly prepared in a pool of both plasma and urine due to matrix effects.
Statistical analyses were carried out using the program SPSS (version 23.0, SPSS, Inc., IBM Company, New York, NY, USA). Significant differences between metabolites excreted in urine after consumption of CC and CC-PP cocoa products were evaluated based on non-parametric Wilcoxon test (p < 0.05). To determine the absorption and elimination of epicatechin metabolites after consumption of the soluble cocoa products, metabolite nutrikinetics were studied using the pharmacokinetic functions of Microsoft Excel, calculating the maximum concentration (Cmax), area under curve (AUC) and time to reach maximum concentration (Tmax). Data are expressed as mean ± standard deviation.

[1] = after CC-PP (68.25 mg flavanols)

Row | Compound | Excreted in urine, Total (after CC (19.80 mg flavanols)) | Excreted in urine, 0–4 h (after CC (19.80 mg flavanols)) | Excreted in urine, 4–8 h (after CC (19.80 mg flavanols)) | Excreted in urine, Total [1] | Excreted in urine, 0–4 h [1] | Excreted in urine, 4–8 h [1] | Excreted in urine, 8–12 h [1] | Excreted in urine, Basal (CC intervention) | Excreted in urine, Basal (CC-PP intervention) | Excreted in urine, 8–12 h (after CC (19.80 mg flavanols)) | Excreted in urine, 12–24 h (after CC (19.80 mg flavanols)) | Excreted in urine, 12–24 h [1]
1 | Epicatechin-3′-methoxy-glucuronide | <L.Q. * | <L.Q. | <L.Q. | 0.121 ± 0.036 µmol | 0.121 ± 0.036 µmol | <L.Q. | <L.Q. |  |  |  |  | 
2 | COc1cc(CC(=O)O)ccc1O [3-Methoxy-4-hydroxyphenylacetic acid] | 0.398 ± 0.118 µmol | 0.099 ± 0.054 µmol | 0.093 ± 0.028 µmol | 0.648 ± 0.178 µmol | 0.188 ± 0.026 µmol | 0.124 ± 0.050 µmol | <L.Q. | 0.103 ± 0.014 µmol | 0.198 ± 0.071 µmol | <L.Q. | 0.103 ± 0.022 µmol | 0.138 ± 0.016 µmol
3 | 4-Hydroxy-5-(hydroxyphenyl)valeric acid-glucuronide [HHPVA-glucuronide] |  |  |  | 1.052 ± 0.182 µmol | <L.Q. | 0.714 ± 0.088 µmol | 0.087 ± 0.019 µmol |  |  |  |  | 0.251 ± 0.075 µmol
4 | O=C(O)CCc1ccc(O)c(O)c1 [3,4-Dihydroxyphenylpropionic acid] | 0.866 ± 0.148 µmol | 0.217 ± 0.051 µmol | 0.243 ± 0.039 µmol | 1.117 ± 0.131 µmol | 0.256 ± 0.027 µmol | 0.238 ± 0.028 µmol | 0.109 ± 0.016 µmol | 0.117 ± 0.024 µmol | 0.213 ± 0.031 µmol | 0.074 ± 0.017 µmol | 0.215 ± 0.016 µmol | 0.301 ± 0.029 µmol
5 | O=C(O)c1ccc(O)c(O)c1 [Protocatechuic acid, 3,4-Dihydroxybenzoic acid] | 0.959 ± 0.217 µmol | 0.227 ± 0.142 µmol | 0.373 ± 0.237 µmol | 0.528 ± 0.105 µmol | 0.105 ± 0.016 µmol | 0.113 ± 0.020 µmol | 0.095 ± 0.040 µmol | 0.161 ± 0.071 µmol | 0.088 ± 0.014 µmol | 0.094 ± 0.047 µmol | 0.104 ± 0.044 µmol | 0.127 ± 0.015 µmol
6 | O=C1CCC(Cc2ccc(O[C@@H]3O[C@H](C(=O)O)[C@@H](O)[C@H](O)[C@H]3O)c(O)c2)O1 (stereo partly drawn) [HPVL-4′-glucuronide, 5-(3′-Hydroxyphenyl)-γ-valerolactone-4′-glucuronide] |  | <L.Q. |  | 0.961 ± 0.151 µmol | <L.Q. | 0.330 ± 0.111 µmol | 0.550 ± 0.015 µmol | <L.Q. | <L.Q. | <L.Q. | <L.Q. | 0.081 ± 0.025 µmol
7 | O=C(O)CCC(O)Cc1ccc(O)c(O)c1 (stereo not drawn) [HDHPVA, 4-Hydroxy-5-(3′,4′-dihydroxyphenyl)valeric acid] | <L.Q. |  | <L.Q. | <L.Q. | <L.Q. | <L.Q. | <L.Q. |  |  | <L.Q. | <L.Q. | <L.Q.
8 | COc1ccc([C@H]2Oc3cc(O)cc(OS(=O)(=O)O)c3C[C@H]2O)cc1O (single isomer, unassigned) [Epicatechin-methoxy-sulfate (isomer 3), Epicatechin-methoxy-sulfate] | 0.758 ± 0.125 µmol | 0.473 ± 0.089 µmol | 0.285 ± 0.036 µmol | 2.354 ± 0.402 µmol | 1.702 ± 0.243 µmol | 0.652 ± 0.148 µmol | <L.Q. |  |  | <L.Q. |  | <L.Q.
9 | O=C(O)Cc1cccc(O)c1 [Hydroxyphenylacetic acid, 3-Hydroxyphenylacetic acid] | 2.208 ± 0.328 µmol | 0.408 ± 0.084 µmol | 0.605 ± 0.092 µmol | 2.862 ± 0.654 µmol | 0.631 ± 0.140 µmol | 0.678 ± 0.231 µmol | 0.434 ± 0.070 µmol | 0.369 ± 0.077 µmol | 0.585 ± 0.070 µmol | 0.225 ± 0.052 µmol | 0.600 ± 0.100 µmol | 0.534 ± 0.143 µmol
10 | COc1ccc(/C=C/C(=O)O)cc1O [Isoferulic acid] | 0.522 ± 0.290 µmol | 0.086 ± 0.028 µmol | 0.096 ± 0.040 µmol | 0.686 ± 0.356 µmol | 0.164 ± 0.044 µmol | 0.160 ± 0.066 µmol | 0.152 ± 0.094 µmol | 0.170 ± 0.137 µmol | <L.Q. | 0.088 ± 0.069 µmol | 0.082 ± 0.016 µmol | 0.210 ± 0.152 µmol
11 | O=C(O)CCc1ccc(O)cc1 [Hydroxyphenylpropionic acid] | 0.883 ± 0.154 µmol | 0.226 ± 0.046 µmol | 0.259 ± 0.043 µmol | 1.204 ± 0.243 µmol | 0.350 ± 0.038 µmol | 0.356 ± 0.076 µmol | 0.140 ± 0.041 µmol | 0.118 ± 0.023 µmol | 0.074 ± 0.013 µmol | 0.077 ± 0.018 µmol | 0.203 ± 0.025 µmol | 0.284 ± 0.075 µmol
12 | O=C1CCC(Cc2cccc(OC3OC(C(=O)O)C(O)C(O)C3O)c2)O1 (stereo not drawn) [PVL-3′glucuronide, 5-Phenyl-γ-valerolactone-3′-glucuronide] | 0.438 ± 0.255 µmol | <L.Q. | 0.233 ± 0.155 µmol | 1.316 ± 0.648 µmol | 0.108 ± 0.045 µmol | 0.521 ± 0.191 µmol | 0.179 ± 0.063 µmol |  | <L.Q. | 0.126 ± 0.078 µmol | 0.079 ± 0.022 µmol | 0.508 ± 0.349 µmol
